Data as given in ChEMBL document CHEMBL5154654, “Design, synthesis and biological evaluation of 7-((7H-pyrrolo[2,3-d]pyrimidin-4-yl)oxy)-2,3-dihydro-1H-inden-1-one derivatives as potent FAK inhibitors for the treatment of ovarian cancer” (Eur J Med Chem, 2022).
Converted amounts (≈) assume the structure as drawn. The source made the active and inactive calls. The rule behind the calls is not given here.

Assays:
[1] = Metabolic stability in human liver microsomes assessed as intrinsic clearance incubated for 120 mins in presence of NADPH by LC-MS/MS analysis; format: ADME, Microsome; conditions: read-out: CLH
[2] = Toxicity in female BALB/c nude mouse xenografted with human PA-1 cells assessed as spleen damage at 60 mg/kg, po administered once daily for 21 days; format: organism-based; conditions: in vivo, 504 h, time 21 day
[3] = AUClast in Sprague-Dawley rat at 20 mg/kg, po; format: ADME, organism-based; parameters: time 0 - last, dose 20 mg/kg, route po; conditions: in vivo
[4] = Tmax in Sprague-Dawley rat at 20 mg/kg, po; format: ADME, organism-based; conditions: in vivo
[5] = target: Dual specificity protein kinase CLK4 (Homo sapiens) (UniProt Q9HAZ1); assay: Inhibition of CLK4 (unknown origin) at 1 uM incubated for 40 mins in presence of Mg/ATP mix relative to control
[6] = Toxicity in female BALB/c nude mouse xenografted with human PA-1 cells assessed as heart damage at 60 mg/kg, po administered once daily for 21 days; format: organism-based; conditions: in vivo, 504 h, time 21 day
[7] = Half-life in Sprague-Dawley rat at 20 mg/kg, po; format: ADME, organism-based; conditions: in vivo
PA-1 [8] = assay: Antitumor activity against human PA-1 cells xenografted in female BALB/c nude mouse assessed tumor growth inhibition at 60 mg/kg, po administered once daily for 21 days; format: functional; conditions: PA-1, 504 h, time 21 day, read-out: TGI
Focal adhesion kinase 1 [9] = target: T1, Focal adhesion kinase 1 (Homo sapiens, UniProt Q05397); assay: Inhibition of FAK (unknown origin) using Fluorescein-Poly GAT as substrate incubated for 30 mins and measured after 60 mins by Lanthascreen assay
Target sequence in this assay (Q05397 whole entry): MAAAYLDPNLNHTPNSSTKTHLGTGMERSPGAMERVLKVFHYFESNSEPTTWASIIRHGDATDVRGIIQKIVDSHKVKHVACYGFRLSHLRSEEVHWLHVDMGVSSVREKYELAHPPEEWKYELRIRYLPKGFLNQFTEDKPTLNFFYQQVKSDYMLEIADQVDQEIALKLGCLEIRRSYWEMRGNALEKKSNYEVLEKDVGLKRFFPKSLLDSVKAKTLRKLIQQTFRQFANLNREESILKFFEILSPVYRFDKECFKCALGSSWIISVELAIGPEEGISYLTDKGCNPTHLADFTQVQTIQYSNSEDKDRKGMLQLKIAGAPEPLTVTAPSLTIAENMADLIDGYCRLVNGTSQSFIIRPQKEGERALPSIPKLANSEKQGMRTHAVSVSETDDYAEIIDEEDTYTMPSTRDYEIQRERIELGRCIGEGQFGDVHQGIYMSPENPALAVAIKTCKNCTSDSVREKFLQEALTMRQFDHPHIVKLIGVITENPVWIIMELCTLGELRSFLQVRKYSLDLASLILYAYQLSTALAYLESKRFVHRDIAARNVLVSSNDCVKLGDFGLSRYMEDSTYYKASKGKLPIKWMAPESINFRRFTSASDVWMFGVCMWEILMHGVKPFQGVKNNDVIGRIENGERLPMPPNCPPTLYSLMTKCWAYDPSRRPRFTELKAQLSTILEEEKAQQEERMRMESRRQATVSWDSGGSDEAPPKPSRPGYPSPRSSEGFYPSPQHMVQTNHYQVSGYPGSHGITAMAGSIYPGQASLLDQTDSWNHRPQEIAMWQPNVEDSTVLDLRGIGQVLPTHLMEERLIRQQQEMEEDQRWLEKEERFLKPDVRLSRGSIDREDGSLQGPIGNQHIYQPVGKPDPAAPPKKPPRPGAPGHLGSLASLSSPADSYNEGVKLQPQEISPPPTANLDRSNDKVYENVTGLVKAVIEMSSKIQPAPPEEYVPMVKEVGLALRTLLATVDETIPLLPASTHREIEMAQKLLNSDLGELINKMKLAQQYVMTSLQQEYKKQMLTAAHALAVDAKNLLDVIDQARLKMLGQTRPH

[10] = Metabolic stability in human liver microsomes assessed as half-life incubated for 120 mins in presence of NADPH by LC-MS/MS analysis; format: ADME, Microsome
[11] = Aqueous solubility of compound; format: physicochemical; conditions: aqueous (not further specified)
ES-2 = assay: Antimetastatic activity against human ES2 cells xenografted in mouse assessed as decrease in the number of peritoneal nodules at 60 mg/kg, po administered daily for 12 days; format: functional, organism-based; conditions: time 12.0 day
[12] = Toxicity in female BALB/c nude mouse xenografted with human PA-1 cells assessed as liver damage at 60 mg/kg, po administered once daily for 21 days; format: organism-based; conditions: in vivo, 504 h, time 21 day
[13] = Metabolic stability in human liver microsomes assessed as parent compound remaining incubated for 120 mins in presence of NADPH by LC-MS/MS analysis; format: ADME, Microsome; conditions: read-out: Stability
PA-1 [14] = assay: Down-regulation of MMP-2 expression in human PA-1 cells at 2 uM measured after 0.5 to 6 hrs; format: functional, cell-based; conditions: time 0.5-6 hrs
[15] = Cmax in Sprague-Dawley rat at 20 mg/kg, po; format: ADME, organism-based; parameters: dose 20 mg/kg, route po; conditions: in vivo
PA-1 [16] = assay: Inhibition of invasion of human PA-1 cells at 2 uM measured after 24 hrs by Transwell assay; format: functional, cell-based
Focal adhesion kinase 1 [17] = target: T1, Focal adhesion kinase 1; conditions: PA-1, dose 10.0 nM
Target sequence in this assay (Q05397 2-1052 limits assumed): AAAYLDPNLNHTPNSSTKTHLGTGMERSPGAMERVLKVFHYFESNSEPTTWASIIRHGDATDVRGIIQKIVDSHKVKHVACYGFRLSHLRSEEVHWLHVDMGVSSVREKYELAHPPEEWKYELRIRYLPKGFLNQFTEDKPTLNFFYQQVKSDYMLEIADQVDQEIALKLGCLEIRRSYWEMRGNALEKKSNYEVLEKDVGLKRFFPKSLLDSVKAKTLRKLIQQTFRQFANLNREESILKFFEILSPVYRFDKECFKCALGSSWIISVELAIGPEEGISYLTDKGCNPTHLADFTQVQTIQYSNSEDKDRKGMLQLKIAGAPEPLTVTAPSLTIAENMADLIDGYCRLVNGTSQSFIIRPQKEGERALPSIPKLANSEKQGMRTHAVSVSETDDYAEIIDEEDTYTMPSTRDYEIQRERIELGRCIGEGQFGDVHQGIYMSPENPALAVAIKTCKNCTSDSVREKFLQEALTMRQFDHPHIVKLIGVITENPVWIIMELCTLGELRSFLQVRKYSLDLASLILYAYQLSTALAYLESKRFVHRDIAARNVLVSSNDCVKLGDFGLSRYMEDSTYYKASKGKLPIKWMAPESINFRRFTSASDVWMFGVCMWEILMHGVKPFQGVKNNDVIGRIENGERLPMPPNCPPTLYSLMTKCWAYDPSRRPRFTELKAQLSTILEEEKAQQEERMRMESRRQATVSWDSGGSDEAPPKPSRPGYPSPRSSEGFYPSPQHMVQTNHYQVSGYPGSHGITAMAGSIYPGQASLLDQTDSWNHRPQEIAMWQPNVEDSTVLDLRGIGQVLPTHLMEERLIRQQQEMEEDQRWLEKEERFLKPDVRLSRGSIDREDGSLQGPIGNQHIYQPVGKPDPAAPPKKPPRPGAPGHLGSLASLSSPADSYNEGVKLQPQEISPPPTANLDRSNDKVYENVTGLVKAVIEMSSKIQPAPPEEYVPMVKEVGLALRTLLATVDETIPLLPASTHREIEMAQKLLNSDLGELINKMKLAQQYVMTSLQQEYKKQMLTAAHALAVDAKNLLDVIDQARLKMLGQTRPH
Description: Inhibition of FAK in human PA-1 cells assessed as suppression of FAK autophosphorylation at 10 nM and measured by Western blotting analysis

[18] = AUC (total) in Sprague-Dawley rat at 20 mg/kg, po; format: ADME, organism-based; parameters: dose 20 mg/kg, route po; conditions: in vivo
[19] = Toxicity in female BALB/c nude mouse xenografted with human PA-1 cells assessed as kidney damage at 60 mg/kg, po administered once daily for 21 days; format: organism-based; conditions: in vivo, 504 h, time 21 day
[20] = Toxicity in female BALB/c nude mouse xenografted with human PA-1 cells assessed as effect on body weight at 60 mg/kg, po administered once daily for 21 days; format: organism-based; conditions: in vivo, 504 h, time 21 day
[21] = target: ALK tyrosine kinase receptor (Homo sapiens) (UniProt Q9UM73); assay: Inhibition of ALK (unknown origin) at 1 uM incubated for 40 mins in presence of Mg/ATP mix relative to control
[22] = target: Serine/threonine-protein kinase 33 (Homo sapiens) (UniProt Q9BYT3); assay: Inhibition of STK33 (unknown origin) at 1 uM incubated for 40 mins in presence of Mg/ATP mix relative to control
[23] = target: Tyrosine-protein kinase Fes/Fps (Homo sapiens) (UniProt P07332); assay: Inhibition of Fes (unknown origin) at 1 uM incubated for 40 mins in presence of Mg/ATP mix relative to control
[24] = target: Leucine-rich repeat serine/threonine-protein kinase 2 (Homo sapiens) (UniProt Q5S007); assay: Inhibition of LRRK2 (unknown origin) at 1 uM incubated for 40 mins in presence of Mg/ATP mix relative to control
[25] = target: Dual specificity protein kinase CLK1 (Homo sapiens) (UniProt P49759); assay: Inhibition of CLK1 (unknown origin) at 1 uM incubated for 40 mins in presence of Mg/ATP mix relative to control
PA-1 [26] = assay: Down-regulation of MMP-9 expression in human PA-1 cells at 2 uM measured after 0.5 to 6 hrs; format: functional, cell-based; conditions: time 0.5-6 hrs
PA-1 [27] = assay: Inhibition of migration of human PA-1 cells at 2 uM measured after 24 hrs by Transwell assay; format: functional, cell-based
[28] = Toxicity in female BALB/c nude mouse xenografted with human PA-1 cells assessed as lung damage at 60 mg/kg, po administered once daily for 21 days; format: organism-based; conditions: in vivo, 504 h, time 21 day

Dual specificity protein kinase CLK1 (Homo sapiens), sequence (P49759 whole entry, looked up): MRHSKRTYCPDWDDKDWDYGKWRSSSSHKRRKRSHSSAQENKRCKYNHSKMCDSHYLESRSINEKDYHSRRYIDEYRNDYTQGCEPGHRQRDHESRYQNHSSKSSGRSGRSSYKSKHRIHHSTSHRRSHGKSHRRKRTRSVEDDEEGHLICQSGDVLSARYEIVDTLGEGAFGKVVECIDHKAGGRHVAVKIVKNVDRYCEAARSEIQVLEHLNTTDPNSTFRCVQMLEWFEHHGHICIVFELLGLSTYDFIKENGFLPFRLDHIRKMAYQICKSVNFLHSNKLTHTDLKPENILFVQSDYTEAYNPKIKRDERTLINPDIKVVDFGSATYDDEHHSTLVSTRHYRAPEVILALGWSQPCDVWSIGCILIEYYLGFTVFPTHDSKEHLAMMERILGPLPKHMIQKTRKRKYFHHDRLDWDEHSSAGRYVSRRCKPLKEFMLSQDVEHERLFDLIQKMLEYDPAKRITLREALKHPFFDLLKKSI
Tyrosine-protein kinase Fes/Fps (Homo sapiens), sequence (P07332 whole entry): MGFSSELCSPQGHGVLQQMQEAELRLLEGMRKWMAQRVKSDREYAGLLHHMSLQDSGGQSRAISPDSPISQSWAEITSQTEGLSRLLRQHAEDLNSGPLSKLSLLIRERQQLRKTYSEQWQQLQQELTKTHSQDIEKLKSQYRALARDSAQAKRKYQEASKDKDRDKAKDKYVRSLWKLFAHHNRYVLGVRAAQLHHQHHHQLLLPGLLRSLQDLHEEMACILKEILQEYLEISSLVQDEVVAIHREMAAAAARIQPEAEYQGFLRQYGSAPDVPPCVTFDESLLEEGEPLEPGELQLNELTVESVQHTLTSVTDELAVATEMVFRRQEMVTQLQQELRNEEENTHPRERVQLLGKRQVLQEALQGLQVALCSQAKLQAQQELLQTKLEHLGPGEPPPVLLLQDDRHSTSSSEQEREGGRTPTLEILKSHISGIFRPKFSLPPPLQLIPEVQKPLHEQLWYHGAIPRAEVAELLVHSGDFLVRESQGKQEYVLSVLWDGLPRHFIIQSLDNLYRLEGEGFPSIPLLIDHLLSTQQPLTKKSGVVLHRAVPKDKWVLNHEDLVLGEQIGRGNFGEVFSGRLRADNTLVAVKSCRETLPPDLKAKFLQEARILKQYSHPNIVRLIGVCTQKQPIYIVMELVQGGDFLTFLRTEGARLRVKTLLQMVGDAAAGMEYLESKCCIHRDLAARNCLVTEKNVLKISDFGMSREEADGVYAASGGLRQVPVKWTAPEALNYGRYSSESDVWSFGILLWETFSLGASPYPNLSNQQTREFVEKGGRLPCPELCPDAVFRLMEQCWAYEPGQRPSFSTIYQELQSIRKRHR
Serine/threonine-protein kinase 33 (Homo sapiens), sequence (Q9BYT3 whole entry, looked up): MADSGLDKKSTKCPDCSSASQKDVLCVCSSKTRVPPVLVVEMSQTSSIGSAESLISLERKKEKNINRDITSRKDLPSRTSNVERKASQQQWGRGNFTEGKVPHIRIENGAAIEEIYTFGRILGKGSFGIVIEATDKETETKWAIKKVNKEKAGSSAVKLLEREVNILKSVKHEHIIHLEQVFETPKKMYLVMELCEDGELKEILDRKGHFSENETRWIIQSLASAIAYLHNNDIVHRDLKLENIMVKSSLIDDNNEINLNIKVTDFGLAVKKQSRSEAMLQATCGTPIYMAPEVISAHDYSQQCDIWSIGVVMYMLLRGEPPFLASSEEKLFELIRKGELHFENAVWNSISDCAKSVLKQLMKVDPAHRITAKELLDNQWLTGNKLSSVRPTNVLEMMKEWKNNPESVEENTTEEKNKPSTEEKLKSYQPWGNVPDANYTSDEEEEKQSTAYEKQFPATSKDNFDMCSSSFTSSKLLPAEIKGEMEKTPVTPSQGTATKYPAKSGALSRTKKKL
Dual specificity protein kinase CLK4 (Homo sapiens), sequence (Q9HAZ1 whole entry, looked up): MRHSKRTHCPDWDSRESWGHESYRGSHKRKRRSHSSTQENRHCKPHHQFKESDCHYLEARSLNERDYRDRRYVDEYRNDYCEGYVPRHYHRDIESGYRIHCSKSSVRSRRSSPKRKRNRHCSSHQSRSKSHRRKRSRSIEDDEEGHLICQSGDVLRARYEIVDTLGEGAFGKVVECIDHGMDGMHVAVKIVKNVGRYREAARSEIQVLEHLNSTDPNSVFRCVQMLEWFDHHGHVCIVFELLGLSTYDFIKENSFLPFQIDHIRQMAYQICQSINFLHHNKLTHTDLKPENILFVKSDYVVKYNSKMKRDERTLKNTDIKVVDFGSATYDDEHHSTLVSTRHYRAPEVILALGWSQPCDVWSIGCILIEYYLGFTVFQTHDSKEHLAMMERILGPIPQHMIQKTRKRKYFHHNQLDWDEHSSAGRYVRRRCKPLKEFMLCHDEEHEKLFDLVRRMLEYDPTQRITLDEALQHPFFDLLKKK

For COc1cc(C(=O)NC2CCNCC2)ccc1Nc1nc(Oc2cccc3c2C(=O)CC3)c2cc[nH]c2n1, the CLint scaled [1] was 7.7 mL/min/kg, the Activity [2] was “Non-Toxic” and the AUC(0-t) [3] was 59.6 ng·h/mL. For the same molecule, the Tmax [4] was 0.28 h, the inhibition [5] was 97% and the Activity [6] was “Non-Toxic”. The half-life [7] was 4.08 h, the inhibition in vivo at 60 mg/kg (PA-1 [8]) was 72.5% and the IC50 (Focal adhesion kinase 1 [9]) was 1.89 nM. The half-life [10] was 1.88 h, the solubility [11] was 456 µg/mL (≈ 890 µM) and the Activity (ES-2) was “Active”. For the same molecule, the Activity [12] was “Non-Toxic”, the remaining at 2 h [13] was 48.6% and the Activity (PA-1 [14]) was “Active”. The Cmax [15] was 21.7 ng/mL, the inhibition (PA-1 [16]) was “Active” and the inhibition (Focal adhesion kinase 1 [17]) was “Active”. The AUC [18] was 78.8 ng·h/mL, the Activity [19] was “Non-Toxic” and the Activity [20] was “Non-Toxic”. The inhibition [21] was 87%, the inhibition [22] was 92% and the inhibition [23] was 96%. The inhibition [24] was 100%, the inhibition [25] was 92% and the Activity (PA-1 [26]) was “Active”. The inhibition (PA-1 [27]) was “Active” and the Activity [28] was “Non-Toxic”.
